For two compounds, IC50 results are on record in patent US20020052504A1, “PIPERIDINE DERIVATIVES AND THEIR USE AS TACHYKININ ANTAGONISTS” (priority 1997, published 2002).

In the experiment the target is human NK1 receptor (Homo sapiens, UniProt P25103). Briefly: NK1 receptor test by the methods of WO 93/01165 (pages 36 to 39). Format: binding. On the procedure:
The exemplified compounds of this invention were tested by the methods set out at pages 36 to 39 of International Patent Specification No. WO 93/01165.

Where a name gives a salt, the structure may show the parent alone.

Chain of human NK1 receptor (P25103 whole entry): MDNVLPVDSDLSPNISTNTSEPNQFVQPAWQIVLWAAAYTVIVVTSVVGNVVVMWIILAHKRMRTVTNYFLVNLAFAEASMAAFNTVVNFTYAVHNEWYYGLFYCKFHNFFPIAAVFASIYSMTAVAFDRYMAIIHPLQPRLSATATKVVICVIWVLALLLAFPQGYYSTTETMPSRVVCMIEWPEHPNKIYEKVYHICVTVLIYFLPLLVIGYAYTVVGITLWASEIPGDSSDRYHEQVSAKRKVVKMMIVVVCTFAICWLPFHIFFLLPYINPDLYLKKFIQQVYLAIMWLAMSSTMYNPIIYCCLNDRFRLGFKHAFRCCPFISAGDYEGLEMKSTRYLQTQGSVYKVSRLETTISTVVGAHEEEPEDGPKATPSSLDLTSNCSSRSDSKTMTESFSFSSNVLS

As to `FC(F)(F)c1nnnn1-c1ccc(OC2CC2)c(CN[C@H]2CCCN[C@H]2c2ccccc2)c1` [Example 1, (2 S3 S)-N-({2-Cyclopropoxy-5-[5-(trifluoromethyl)tetrazol-1-yl]phenyl}methyl)-2-phenylpiperidin-3-amine Dihydrochloride], the midpoint of inhibition, the IC50, lay at 0.08 nM.

Turning to `Fc1ccc(C2NCCCC2NCc2cc(-n3nnnc3C(F)(F)F)ccc2OC2CC2)cc1` (racemic) [Example 2, (±)-(2 R3 R 2 S3 S)-N-({2-Cyclopropoxy-5-[5-(trifluoromethyl)tetrazol-1-yl]phenyl}methyl)-2-(4-fluorophenyl)piperidin-3-amine Dihydrochloride], the IC50 (in general, the concentration needed to halve the response being measured) came out at 0.13 nM.
